Patent US10138228B2, “Isoxazole derivatives as FXR agonists and methods of use therof” (Enanta Pharmaceuticals, Inc., priority 2016, dated 2018)

Biological target: human FXR (NR1H4) (Homo sapiens (Human), UniProt Q96RI1)
Assay: Human FXR (NR1H4) Assay (Gal4 promoter driven luciferase reporter, CHO cells)
Assay type: cell-based
Conditions: CHO reporter cells expressing human NR1H4; for EC50: 22 hours incubation, potency ranges; for Efficacy (%): normalized to CDCA set as 100%
Text: Human FXR (NR1H4) Assay Determination of a ligand mediated Gal4 promoter driven transactivation to quantify ligand binding mediated activation of FXR. FXR Reporter Assay kit purchased from Indigo Bioscience (Catalogue number: IB00601) to determine the potency and efficacy of compound developed by Enanta that can induce FXR activation. The principle application of this reporter assay system is to quantify functional activity of human FXR. The assay utilizes non-human mammalian cells, CHO (Chinese hamster ovary) cells engineered to express human NR1H4 protein (referred to as FXR). Reporter cells also incorporate the cDNA encoding beetle luciferase which catalyzes the substrates and yields photon emission. Luminescence intensity of the reaction is quantified using a plate-reading luminometer, Envision. Reporter Cells include the luciferase reporter gene functionally linked to an FXR responsive promoter. Thus, quantifying changes in luciferase expression in the treated reporter cells provides a sensitive surrogate measure of the changes in FXR activity. […] The assay is according to the manufacturer's instructions. In brief, the assay was performed in white, 96 well plates using final volume of 100 μl containing cells with different doses of compounds. Retrieve Reporter Cells from −80° C. storage. Perform a rapid thaw of the frozen cells by transferring a 10 ml volume of 37° C. cell recovery medium into the tube of frozen cells. Recap the tube of Reporter Cells and immediately place it in a 37° C. water bath for 5-10 minutes. Retrieve the tube of Reporter Cell Suspension from the water bath. Sanitize the outside surface of the tube with a 70% alcohol swab, and then transfer it into the cell culture hood. Dispense 90 μl of cell suspension into each well of the 96-well Assay Plate. Transfer the plate into 37° C. incubator, allowing the cells adherent to the bottom of the well. Dilute compounds in Dilution Plate (DP), and administrate to cells at Assay Plate (AP). DMSO content of the samples was kept at 0.2%. Cells were incubated for additional 22 hours before luciferase activities were measured. Thirty minutes before intending to quantify FXR activity, remove Detection Substrate and Detection Buffer from the refrigerator and place them in a low-light area so that they may equilibrate to room temperature. Remove the plate's lid and discard all media contents by ejecting it into an appropriate waste container. Gently tap the inverted plate onto a clean absorbent paper towel to remove residual droplets. Cells will remain tightly adhered to well bottoms. Add 100 μl of luciferase detection reagent to each well of the assay plate. Allow the assay plate to rest at room temperature for at least 5 minutes following the addition of LDR. Set the instrument (Envision) to perform a single 5 second “plate shake” prior to reading the first assay well. Read time may be 0.5 second (500 mSec) per well.

Sequence of human FXR (NR1H4) (Q96RI1 whole entry, the tested form may be a part): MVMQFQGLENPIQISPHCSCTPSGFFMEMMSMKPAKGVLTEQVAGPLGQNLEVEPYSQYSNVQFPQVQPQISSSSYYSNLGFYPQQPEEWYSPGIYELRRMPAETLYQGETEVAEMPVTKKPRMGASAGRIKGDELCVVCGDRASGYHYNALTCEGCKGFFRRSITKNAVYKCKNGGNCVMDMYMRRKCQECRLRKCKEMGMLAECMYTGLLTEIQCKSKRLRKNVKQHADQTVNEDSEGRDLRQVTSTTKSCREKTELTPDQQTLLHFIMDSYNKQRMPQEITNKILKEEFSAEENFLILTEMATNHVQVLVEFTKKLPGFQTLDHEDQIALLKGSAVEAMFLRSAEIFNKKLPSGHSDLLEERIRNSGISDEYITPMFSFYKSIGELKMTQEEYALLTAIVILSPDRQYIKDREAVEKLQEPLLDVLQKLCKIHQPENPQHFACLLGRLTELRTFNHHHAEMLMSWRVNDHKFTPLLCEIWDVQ

| EC50 [µM] | Efficacy (%) | Compound |
| --- | --- | --- |
| 0.1 to 1 | 145 | CN(Cc1ccc(C(=O)NS(=O)(=O)C2CC2)cc1)c1ccc(OCc2c(-c3c(Cl)cccc3Cl)noc2C2CC2)nc1C(F)(F)F [Example 1] |
| 1 to 10 | 108 | CN(Cc1ccc(C(=O)NS(=O)(=O)c2ccc(C(C)(C)C)cc2)cc1)c1ccc(OCc2c(-c3c(Cl)cccc3Cl)noc2C2CC2)nc1C(F)(F)F [Example 2] |
|  | 153 | CN(Cc1ccc(C(=O)NS(=O)(=O)N(C)C)cc1)c1ccc(OCc2c(-c3c(Cl)cccc3Cl)noc2C2CC2)nc1C(F)(F)F [Example 3] |
